Assays:
[1] = test system: GIST; details: 345 patients, 400 mg/day, cited from earlier work
[2] = test system: advanced GIST; details: cited from earlier work
[3] = target: c-Kit gain-of-function mutant V559D (exon 11) (Homo sapiens, UniProt P10721, V559D); details: in vitro; cited from earlier work

Row | SMILES | melting point | also measured
1 | Cc1ccc(NC(=O)Nc2ccccc2F)cc1Nc1nc(-c2cccnc2)cs1 [Compound 023, 1-(2-Fluoro-phenyl)-3-[4-methyl-3-(4-pyridin-3-yl-thiazol-2-ylamino)-phenyl]-urea] | 203 to 206 °C | 
2 | Cc1ccc(NC(=O)Nc2cccc(F)c2)cc1Nc1nc(-c2cccnc2)cs1 [Compound 025, 1-(3-Fluoro-phenyl)-3-[4-methyl-3-(4-pyridin-3-yl-thiazol-2-ylamino)-phenyl]-urea] | 210 to 215 °C | 
3 | Cc1ccc(NC(=O)Nc2ccc(C)c(Nc3nc(-c4cccnc4)cs3)c2)cc1 [Compound 026, 1-[4-Methyl-3-(4-pyridin-3-yl-thiazol-2-ylamino)-phenyl]-3-p-tolyl-urea] | 238 to 240 °C | 
4 | Cc1ccc(NC(=O)c2ccc(NS(=O)(=O)c3cccs3)cc2)cc1Nc1nc(-c2cccnc2)cs1 [Compound 044, N-[4-Methyl-3-(4-pyridin-3-yl-thiazol-2-ylamino)-phenyl]-4-(thiophene-2-sulfonylamino)-benzamide] | 230 to 233 °C | 
5 | Cc1ccc(NC(=O)c2cccc(F)c2)cc1Nc1nc(-c2cccnc2)cs1 [Compound 045, 3-Fluoro-N-[4-methyl-3-(4-pyridin-3-yl-thiazol-2-ylamino)-phenyl]-benzamide] | 184 to 186 °C | 
6 | Cc1ccc(NC(=O)c2ccc(-c3ccncc3)cc2)cc1Nc1nc(-c2cccnc2)cs1 [Compound 046, N-[4-Methyl-3-(4-pyridin-3-yl-thiazol-2-ylamino)-phenyl]-4-pyridin-4-yl-benzamide] | 254 to 256 °C | 
7 | Cc1ccc(NC(=O)c2ccc(N(C)C)cc2)cc1Nc1nc(-c2cccnc2)cs1 [Compound 047, 4-Dimethylamino-N-[4-methyl-3-(4-pyridin-3-yl-thiazol-2-ylamino)-phenyl]-benzamide] | 147 to 150 °C | 
8 | Cc1ccc(F)c(C(=O)Nc2ccc(C)c(Nc3nc(-c4cccnc4)cs3)c2)c1 [Compound 048, 2-Fluoro-5-methyl-N-[4-methyl-3-(4-pyridin-3-yl-thiazol-2-ylamino)-phenyl]-benzamide] | 103 to 106 °C | 
9 | Cc1ccc(NC(=O)c2ccc(C(C)(C)C)cc2)cc1Nc1nc(-c2cccnc2)cs1 [Compound 049, 4-tert-Butyl-N-[4-methyl-3-(4-pyridin-3-yl-thiazol-2-ylamino)-phenyl]-benzamide] | 145 to 150 °C | 
10 | Cc1ccc(NC(=O)c2cccc(OCCN3CCOCC3)c2)cc1Nc1nc(-c2cccnc2)cs1 [Compound 052, N-[4-Methyl-3-(4-pyridin-3-yl-thiazol-2-ylamino)-phenyl]-3-(2-morpholin-4-yl-ethoxy)-benzamide] | 75 to 80 °C | 
11 | COc1cccc(C(=O)Nc2ccc(C)c(Nc3nc(-c4cccnc4)cs3)c2)c1 [Compound 059] | 76 to 79 °C | 
12 | Cc1ccc(NC(=O)c2cccc(N(C)C)c2)cc1Nc1nc(-c2cccnc2)cs1 [Compound 088, 3-Dimethylamino-N-[4-methyl-3-(4-pyridin-3-yl-thiazol-2-ylamino)-phenyl]-benzamide] | 197 to 198 °C | 
13 | Cc1ccc(NC(=O)c2cccc(N3CCOCC3)c2)cc1Nc1nc(-c2cccnc2)cs1 [Compound 090, N-[4-Methyl-3-(4-pyridin-3-yl-thiazol-2-ylamino)-phenyl]-3-morpholin-4-yl-benzamide] | 247 to 248 °C | 
14 | Cc1ccc(NC(=O)CCCN2CCOCC2)cc1Nc1nc(-c2cccnc2)cs1 [Compound 096, N-[4-Methyl-3-(4-pyridin-3-yl-thiazol-2-ylamino)-phenyl]-4-morpholin-4-yl-butyramide] | 116 to 120 °C | 
15 | Cc1ccc(NC(=O)c2ccc(CN3CCN(C)CC3)cc2)cc1Nc1nccc(-c2cccnc2)n1 [imatinib] |  | median PFS ([1]; 95% CI [16-21]): 18 months; 2-year PFS rate ([1]; 95% CI [36-47]): 46%; Median overall survival (OS) ([1]; 95% CI [47-62]): 55 months; 2-year survival ([1]; 95% CI [67-77]): 72%; 3-year survival [1]: ~61%; 2-year survival rate of patients with advanced GIST ([2]; after introduction of imatinib (pre-imatinib 25%)): about 70%; early resistance (progression within the first 6 months, no response), patients ([2]; in vivo): 10-15%
16 | CS(=O)(=O)O.CS(=O)(=O)O.Cc1ccc(NC(=O)c2ccc(CN3CCN(C)CC3)cc2)cc1Nc1nc(-c2cccnc2)cs1 [masitinib mesilate, 4-(4-methylpiperazin-1-ylmethyl)-N-[4-methyl-3-(4-pyridin-3ylthiazol-2-ylamino)phenyl]benzamide-mesylate methane sulfonic acid salt] |  | inhibition of c-Kit mutant V559D (exon 11) [3]: potently inhibits

— US20110201620A1, “2-(3-AMINOARYL) AMINO-4-ARYL-THIAZOLES AND THEIR USE AS C-KIT INHIBITORS” (AB SCIENCE, priority 2002, published 2011)
